From article PMC12661400, “Oral bioavailable ITRI-148 degrades androgen receptor variants and overcomes antiandrogen resistance in advanced prostate cancer” (Neoplasia (New York, N.Y.), 2025)

Assay: Repeated-dose toxicity study: serum clinical chemistry
Assay type: in vivo, Sprague-Dawley rats
Settings: rat serum
Method: Repeated-dose toxicity and toxicokinetic studies
Repeated-dose oral toxicity study and toxicokinetic (TK) profiling was conducted in Sprague-Dawley rats. ITRI-148 was administered once daily using oral gavage at doses of 100, 300, 600, and 1000 mg/kg/day for 7 consecutive days, followed by a 7-day recovery period. Each dose group comprised 3 animals designated for toxicokinetic (TK) analysis and 6 animals for dose-range finding (DRF) evaluation. Clinical observations, body weights, and food consumption were monitored daily throughout the dosing and recovery periods. […]
All samples were analyzed in duplicate. Hematology and serum clinical chemistry analyses were performed on Day 7 (end of dosing) and Day 14 (end of recovery). […]
All procedures were conducted in compliance with institutional animal care and use guidelines. […]
Targeting androgen receptor and the variants by an orally bioavailable
Proteolysis Targeting Chimeras compound in castration resistant prostate cancer

[1] = PO 100 mg/kg/day 7 days, Day 14 (recovery)
[2] = PO 300 mg/kg/day 7 days, Day 14 (recovery)
[3] = PO 600 mg/kg/day 7 days, Day 14 (recovery)
[4] = PO 1000 mg/kg/day 7 days, Day 7
[5] = PO 1000 mg/kg/day 7 days, Day 14 (recovery)

O=C1CCC(N2C(=O)c3cccc(NCC(=O)N4CCC(N5CCC(C#Cc6ccc(C7CCN(C8=Nn9c(nnc9C(F)(F)F)CC8)CC7)cc6)CC5)CC4)c3C2=O)C(=O)N1 (centres unmarked) [ITRI-148]
ALT (PO 100 mg/kg/day 7 days, Day 7): 102.3 ± 40.6 U/L | AST (PO 100 mg/kg/day 7 days, Day 7): 188.7 ± 59 U/L | BUN (PO 100 mg/kg/day 7 days, Day 7): 17.73 ± 2.8 mg/dL | CRE (PO 100 mg/kg/day 7 days, Day 7): 0.63 ± 0.06 mg/dL | ALT [1]: 84.3 ± 31.6 U/L | AST [1]: 136.7 ± 10.4 U/L | BUN [1]: 13.23 ± 1.12 mg/dL | CRE [1]: 0.4 ± 0.1 mg/dL | ALT (PO 300 mg/kg/day 7 days, Day 7): 85.3 ± 10 U/L | AST (PO 300 mg/kg/day 7 days, Day 7): 177 ± 37.4 U/L | BUN (PO 300 mg/kg/day 7 days, Day 7): 20.53 ± 2.06 mg/dL | CRE (PO 300 mg/kg/day 7 days, Day 7): 0.63 ± 0.06 mg/dL | ALT [2]: 60.7 ± 7.1 U/L | AST [2]: 122 ± 5.3 U/L | BUN [2]: 10.9 ± 1.13 mg/dL | CRE [2]: 0.33 ± 0.06 mg/dL | ALT (PO 600 mg/kg/day 7 days, Day 7): 76.7 ± 2.1 U/L | AST (PO 600 mg/kg/day 7 days, Day 7): 196 ± 66 U/L | BUN (PO 600 mg/kg/day 7 days, Day 7): 21.8 ± 1.81 mg/dL | CRE (PO 600 mg/kg/day 7 days, Day 7): 0.57 ± 0.06 mg/dL | ALT [3]: 69.3 ± 11.5 U/L | AST [3]: 170 ± 41.7 U/L | BUN [3]: 13.03 ± 0.83 mg/dL | CRE [3]: 0.47 ± 0.06 mg/dL | ALT [4]: 68 ± 15.4 U/L | AST [4]: 132.7 ± 14.5 U/L | BUN [4]: 16.77 ± 2.32 mg/dL | CRE [4]: 0.57 ± 0.06 mg/dL | ALT [5]: 94.3 ± 41.2 U/L | AST [5]: 150.3 ± 43 U/L | BUN [5]: 16.23 ± 4.71 mg/dL | CRE [5]: 0.37 ± 0.06 mg/dL
